Key:
[1] = tested on: 8G9/HRP (binding to virus strain Ck/HK/Yu22/02)
[2] = tested on: 8G9 ascites (HI activity for Ck/HKYU22/02 virus); format: biochemical

## H T P C D T R D C V L R [G2]
[1]
  Competition with avian influenza virus for 8G9/HRP: had competition activity
[2]
  HI blocking effect: could clearly block

From patent US8603467B2 (priority 2007, dated 2013)
